Target: human PDE1b enzyme (Homo sapiens (Human), UniProt Q01064)
Experiment: PDE1b inhibitory assay (IMAP TR-FRET)
Settings: for PDE1b (pEC50): negative log of half-maximal molar inhibitory concentration, 200 nM FAM-cAMP, reported as ranges

Row | Compound | EC50 [nM] | PDE1b (pEC50)
1 | COc1ccc(Cn2c(=O)n3ncnc3c3c4c(sc32)CNCC4)cc1 [Example 183, 6-(4-Methoxybenzyl)-8,9,10,11-tetrahydropyrido[4′,3′:4,5]thieno[3,2-e][1,2,4]triazolo[1,5-c]pyrimidin-5(6H)-one] | 100 to 1000 | 
2 | COc1ccc(Cn2c(=O)n3ncnc3c3c4c(sc32)CCNC4)cc1 [Example 184, 6-(4-Methoxybenzyl)-8,9,10,11-tetrahydropyrido[3′,4′:4,5]thieno[3,2-e][1,2,4]triazolo[1,5-c]pyrimidin-5(6H)-one] | 100 to 1000 | 
3 | COc1ccc(Cn2c(=O)n3ncnc3c3cc(CN4CCC(Oc5ccncc5)CC4)sc32)cc1 [Example 185, 6-(4-Methoxybenzyl)-8-((4-(pyridin-4-yloxy)piperidin-1-yl)methyl)thieno[3,2-e][1,2,4]triazolo[1,5-c]pyrimidin-5(6H)-one] | 100 to 1000 | 
4 | COc1ccc(Cn2c(=O)n3ncnc3c3cc(CN4CCN(c5ccccc5F)CC4)sc32)cc1 [Example 186, 8-((4-(2-Fluorophenyl)piperazin-1-yl)methyl)-6-(4-methoxybenzyl)thieno[3,2-e][1,2,4]triazolo[1,5-c]pyrimidin-5(6H)-one] |  | >7
5 | COc1ccc(Cn2c(=O)n3ncnc3c3cc(CN4CCN(c5cccc(F)c5)CC4)sc32)cc1 [Example 187, 8-((4-(3-Fluorophenyl)piperazin-1-yl)methyl)-6-(4-methoxybenzyl)thieno[3,2-e][1,2,4]triazolo[1,5-c]pyrimidin-5(6H)-one] |  | >7
6 | COc1ccc(Cn2c(=O)n3ncnc3c3cc(CN4CCN(c5ccc(F)cc5)CC4)sc32)cc1 [Example 188, 8-((4-(4-Fluorophenyl)piperazin-1-yl)methyl)-6-(4-methoxybenzyl)thieno[3,2-e][1,2,4]triazolo[1,5-c]pyrimidin-5(6H)-one] | 100 to 1000 | 
7 | COc1ccc(Cn2c(=O)n3ncnc3c3c(CN4CCC(Oc5ccccc5)C4)csc32)cc1 (stereo not shown) [Example 189, 6-(4-Methoxybenzyl)-9-((3-phenoxypyrrolidin-1-yl)methyl)thieno[3,2-e][1,2,4]triazolo[1,5-c]pyrimidin-5(6H)-one] |  | >7
8 | COc1ccc(Cn2c(=O)n3ncnc3c3cc(CN4CC(Oc5ccccc5F)C4)sc32)cc1 [Example 190, 8-((3-(2-Fluorophenoxy)azetidin-1-yl)methyl)-6-(4-methoxybenzyl)thieno[3,2-e][1,2,4]triazolo[1,5-c]pyrimidin-5(6H)-one] | 1000 to 10000 | 
9 | COc1ccc(Cn2c(=O)n3ncnc3c3cc(CN4CCC(N5CCOCC5)CC4)sc32)cc1 [Example 191] |  | >7
10 | COc1ccc(Cn2c(=O)n3ncnc3c3cc(CN4CCC5(C4)CC5(F)F)sc32)cc1 (stereo not shown) [Example 192, 8-((1,1-Difluoro-5-azaspiro[2.4]heptan-5-yl)methyl)-6-(4-methoxybenzyl)thieno[3,2-e][1,2,4]triazolo[1,5-c]pyrimidin-5(6H)-one] | 100 to 1000 | 
11 | COc1ccc(Cn2c(=O)n3ncnc3c3cc(CN4CCCN(C(C)=O)CC4)sc32)cc1 [Example 193, 8-((4-Acetyl-1,4-diazepan-1-yl)methyl)-6-(4-methoxybenzyl)thieno[3,2-e][1,2,4]triazolo[1,5-c]pyrimidin-5(6H)-one] |  | >7
12 | COc1ccc(Cn2c(=O)n3ncnc3c3cc(CN4CCCOCC4)sc32)c(F)c1F [Example 194, 8-((1,4-Oxazepan-4-yl)methyl)-6-(2,3-difluoro-4-methoxybenzyl)thieno[3,2-e][1,2,4]triazolo[1,5-c]pyrimidin-5(6H)-one] |  | >7
13 | COc1ccc(Cn2c(=O)n3ncnc3c3c(CN4CCCC(CO)(CC(C)C)C4)csc32)cc1 (stereo not shown) [Example 195, 9-((3-(Hydroxymethyl)-3-isobutylpiperidin-1-yl)methyl)-6-(4-methoxybenzyl)thieno[3,2-e][1,2,4]triazolo[1,5-c]pyrimidin-5(6H)-one] | 100 to 1000 | 
14 | CCN(Cc1cc2c(s1)n(Cc1ccc(OC)cc1)c(=O)n1ncnc21)C1CCOC(C)(C)C1 (stereo not shown) [Example 196] | 1000 to 10000 | 
15 | CCN(Cc1csc2c1c1ncnn1c(=O)n2Cc1ccc(OC)cc1)CC1CCOCC1 [Example 197, 9-((Ethyl((tetrahydro-2H-pyran-4-yl)methyl)amino)methyl)-6-(4-methoxybenzyl)thieno[3,2-e][1,2,4]triazolo[1,5-c]pyrimidin-5(6H)-one] | 100 to 1000 | 
16 | CCN(Cc1cc2c(s1)n(Cc1ccc(OC)cc1)c(=O)n1ncnc21)CC1CCOCC1 [Example 198, 8-((Ethyl((tetrahydro-2H-pyran-4-yl)methyl)amino)methyl)-6-(4-methoxybenzyl)thieno[3,2-e][1,2,4]triazolo[1,5-c]pyrimidin-5(6H)-one] | 1000 to 10000 | 
17 | COc1ccc(Cn2c(=O)n3ncnc3c3c(CN(C)CC4CCOCC4)csc32)cc1 [Example 199, 6-(4-Methoxybenzyl)-9-((methyl((tetrahydro-2H-pyran-4-yl)methyl)amino)methyl)thieno[3,2-e][1,2,4]triazolo[1,5-c]pyrimidin-5(6H)-one] |  | >7

Row | Compound | EC50 [nM] | PDE1b (pEC50)
18 | COc1ccc(Cn2c(=O)n3ncnc3c3cc(CN4C[C@@H](C)O[C@@H](C)C4)sc32)c(F)c1F [Example 200, 6-(2,3-Difluoro-4-methoxybenzyl)-8-(((2R,6S)-2,6-dimethylmorpholino)methyl)thieno[3,2-e][1,2,4]triazolo[1,5-c]pyrimidin-5(6H)-one] | 1000 to 10000 | 
19 | COc1ccc(Cn2c(=O)n3ncnc3c3cc(CN4C[C@@H](C)O[C@@H](C)C4)sc32)cc1F [Example 201, 8-(((2R,6S)-2,6-Dimethylmorpholino)methyl)-6-(3-fluoro-4-methoxybenzyl)thieno[3,2-e][1,2,4]triazolo[1,5-c]pyrimidin-5(6H)-one] |  | >7
20 | COc1ccc(Cn2c(=O)n3ncnc3c3c(CNCC4CCOCC4)csc32)cc1 [Example 203, 6-(4-Methoxybenzyl)-9-((((tetrahydro-2H-pyran-4-yl)methyl)amino)methyl)thieno[3,2-e][1,2,4]triazolo[1,5-c]pyrimidin-5(6H)-one] |  | >7
21 | COc1ccc(Cn2c(=O)n3ncnc3c3cc(CN(C)C4CCOCC4)sc32)cc1 [Example 204, 6-(4-Methoxybenzyl)-8-((methyl(tetrahydro-2H-pyran-4-yl)amino)methyl)thieno[3,2-e][1,2,4]triazolo[1,5-c]pyrimidin-5(6H)-one] | 1000 to 10000 | 
22 | C[C@@H]1CN(Cc2cc3c(s2)n(Cc2ccc(F)c(Cl)c2)c(=O)n2ncnc32)C[C@H](C)O1 [Example 205, 6-(3-Chloro-4-fluorobenzyl)-8-(((2R,6S)-2,6-dimethylmorpholino)methyl)thieno[3,2-e][1,2,4]triazolo[1,5-c]pyrimidin-5(6H)-one] |  | >7
23 | COc1ccc(Cn2c(=O)n3ncnc3c3cc(CN4CCS(=O)(=O)CC4)sc32)cc1 [Example 206, 8-((1,1-Dioxidothiomorpholino)methyl)-6-(4-methoxybenzyl)thieno[3,2-e][1,2,4]triazolo[1,5-c]pyrimidin-5(6H)-one] |  | >7
24 | COc1ccc(Cn2c(=O)n3ncnc3c3cc(CN4CCOCC4)sc32)cc1F [Example 207, 6-(3-Fluoro-4-methoxybenzyl)-8-(morpholinomethyl)thieno[3,2-e][1,2,4]triazolo[1,5-c]pyrimidin-5(6H)-one] |  | >7
25 | COc1ccc(Cn2c(=O)n3ncnc3c3cc(CN4CCOCC4)sc32)c(F)c1 [Example 208, 6-(2-Fluoro-4-methoxybenzyl)-8-(morpholinomethyl)thieno[3,2-e][1,2,4]triazolo[1,5-c]pyrimidin-5(6H)-one] | 100 to 1000 | 
26 | O=c1n(Cc2ccc(F)c(Cl)c2)c2sc(CN3CCOCC3)cc2c2ncnn12 [Example 209, 6-(3-Chloro-4-fluorobenzyl)-8-(morpholinomethyl)thieno[3,2-e][1,2,4]triazolo[1,5-c]pyrimidin-5(6H)-one] |  | >7
27 | COc1ccc(Cn2c(=O)n3ncnc3c3cc(CN(C)CC4(C)COC4)sc32)c(F)c1F [Example 210, 6-(2,3-Difluoro-4-methoxybenzyl)-8-((methyl((3-methyloxetan-3-yl)methyl)amino)methyl)thieno[3,2-e][1,2,4]triazolo[1,5-c]pyrimidin-5(6H)-one] | 100 to 1000 | 
28 | COc1ccc(Cn2c(=O)n3ncnc3c3cc(CNCC4(C)COC4)sc32)cc1 [Example 211] | 100 to 1000 | 
29 | COc1ccc(Cn2c(=O)n3ncnc3c3cc(CN4CC(O)C4)sc32)c(F)c1F [Example 212, 6-(2,3-Difluoro-4-methoxybenzyl)-8-((3-hydroxyazetidin-1-yl)methyl)thieno[3,2-e][1,2,4]triazolo[1,5-c]pyrimidin-5(6H)-one] | 100 to 1000 | 
30 | COc1ccc(Cn2c(=O)n3ncnc3c3cc(CN4CC(O)C4)sc32)c(F)c1 [Example 213, 6-(2-Fluoro-4-methoxybenzyl)-8-((3-hydroxyazetidin-1-yl)methyl)thieno[3,2-e][1,2,4]triazolo[1,5-c]pyrimidin-5(6H)-one] | 100 to 1000 | 
31 | COc1ccc(Cn2c(=O)n3ncnc3c3cc(CN(C)C)sc32)c(F)c1F [Example 214, 6-(2,3-Difluoro-4-methoxybenzyl)-8-((dimethylamino)methyl)thieno[3,2-e][1,2,4]triazolo[1,5-c]pyrimidin-5(6H)-one] | 100 to 1000 | 
32 | COc1ccc(Cn2c(=O)n3ncnc3c3c(CN(C(C)C)C(C)C)csc32)cc1 [Example 215, 9-((Diisopropylamino)methyl)-6-(4-methoxybenzyl)thieno[3,2-e][1,2,4]triazolo[1,5-c]pyrimidin-5(6H)-one] | 100 to 1000 | 
33 | COc1ccc(Cn2c(=O)n3ncnc3c3c4c(sc32)CCN(CC2CCOCC2)C4)cc1 [Example 216, 6-(4-Methoxybenzyl)-10-((tetrahydro-2H-pyran-4-yl)methyl)-8,9,10,11-tetrahydropyrido[3′,4′:4,5]thieno[3,2-e][1,2,4]triazolo[1,5-c]pyrimidin-5(6H)-one] |  | <5
34 | COc1ccc(Cn2c(=O)n3ncnc3c3c4c(sc32)CNCCC4)cc1 [Example 217, 6-(4-Methoxybenzyl)-6,8,9,10,11,12-hexahydro-5H-[1,2,4]triazolo[1″,5″:1′,6′]pyrimido[5′,4′:4,5]thieno[2,3-c]azepin-5-one] |  | >7

Source: patent publication US10092575B2, “Substituted thiophene- and furan-fused azolopyrimidine-5-(6H)-one compounds” (DART NEUROSCIENCE (CAYMAN) LTD., priority 2012, dated 2018)
